Values quoted from earlier work as cited in patent publication US7816404B2, “Methods for the preparation and use of ferric pyrophosphate citrate chelate compositions” (Rockwell Medical Technologies, Inc., priority 2007, dated 2010).

Settings: stability constant with ferric ion

| SMILES | log Kstab for ferric ion |
| --- | --- |
| O=C(O)CC(O)(CC(=O)O)C(=O)O [citrate] | 12 |
| O=P(O)(O)OP(=O)(O)O [pyrophosphate] | 22.2 |
